Test results published in patent publication US6689574B1, “Assays for nuclear receptor agonists and antagonists using fluorescence resonance energy transfer” (Merck & Co., Inc., priority 1997, dated 2004).

Legend:
Assay type in all cases: biochemical
GST-hPPARγ1LBD = target: T1, GST-hPPARγ1LBD (Homo sapiens, UniProt P37231); test: FRET assay, biotin-hCBP1-453 with SA-XL665, GST-hPPARγ1LBD and Eu3+K-labeled anti-GST antibody (experiment 4); settings: HEPES + 0.05% CHAPS, 1 μM AD5075, ratio 665 nm/620 nm
T1 construct: amino acids 176-478 of PPARγ1; made in house; host or cells: E. coli (DH5α)
T1 sequence (P37231 204-505): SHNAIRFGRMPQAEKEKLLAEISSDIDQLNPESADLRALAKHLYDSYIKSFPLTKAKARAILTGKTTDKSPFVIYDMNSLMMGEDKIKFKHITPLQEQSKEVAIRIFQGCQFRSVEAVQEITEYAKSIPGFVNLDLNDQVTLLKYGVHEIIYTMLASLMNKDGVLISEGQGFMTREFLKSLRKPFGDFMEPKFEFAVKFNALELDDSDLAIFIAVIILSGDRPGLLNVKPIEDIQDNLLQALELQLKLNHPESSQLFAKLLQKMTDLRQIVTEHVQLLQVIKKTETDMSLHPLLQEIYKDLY
T1 sequence (Q92793 1-453 partner): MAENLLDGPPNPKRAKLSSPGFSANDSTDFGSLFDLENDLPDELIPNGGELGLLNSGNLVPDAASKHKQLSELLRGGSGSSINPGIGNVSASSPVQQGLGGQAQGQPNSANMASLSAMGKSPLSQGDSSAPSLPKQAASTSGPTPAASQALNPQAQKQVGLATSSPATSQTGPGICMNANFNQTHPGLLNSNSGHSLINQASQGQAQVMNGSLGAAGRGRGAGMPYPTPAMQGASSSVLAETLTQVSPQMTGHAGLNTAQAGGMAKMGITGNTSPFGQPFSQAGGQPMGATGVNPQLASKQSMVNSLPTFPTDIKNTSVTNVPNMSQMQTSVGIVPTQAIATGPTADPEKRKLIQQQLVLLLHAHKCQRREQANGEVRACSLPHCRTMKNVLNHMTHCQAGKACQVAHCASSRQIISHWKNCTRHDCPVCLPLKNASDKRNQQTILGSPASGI
Description: To further improve the signal to noise ratio, a series of experiments were conducted. Experiment 4 of Table 1 exemplifies 5 results obtained from those efforts. cDNA encoding a longer fragment of hCBP was cloned and expressed to get hCBP1-453. hCBP1-453 was biotinylated. Biotin-labeled hCBP1-453 (25 nM), SA-XL665 (100 nM), GST-hPPARγ1LBD (1 nM), and Eu3+K-labeled anti-GST antibody (2 nM) were mixed together in the presence or absence of 1 μM AD5075. […] A three- to four-fold signal-noise ratio was obtained.

PPARγ1LBD [1] = target: T2, PPARγ1LBD (Homo sapiens, UniProt P37231); test: FRET assay, GST-hCBP1-113 with Eu3+K-labeled anti-GST antibody, biotin-hPPARγ1LBD and SA-XL665 (experiment 3); set-up: amino acids 176-478 of PPARγ1; GST (N, cleaved yes); made in house; host or cells: E. coli (DH5α); settings: HEPES + 0.05% NP40, 1 μM AD5075, ratio 665 nm/620 nm
T2 sequence (P37231 204-505): as the sequence (P37231 204-505) above
T2 sequence (Q92793 1-113 partner): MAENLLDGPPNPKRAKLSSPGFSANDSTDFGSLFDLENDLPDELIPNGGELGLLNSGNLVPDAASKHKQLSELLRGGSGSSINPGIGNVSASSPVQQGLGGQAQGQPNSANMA
Description: In order to get an even better signal-noise ratio, the above-described format was modified slightly for experiment 3. In experiment 3, SA-XL665 (500 nM), biotin-labeled hPPARγ1LBD (100 nM), GST-hCBP1-113, and Eu3+K labeled anti-GST antibody (2.5 μl) were incubated in the presence or absence of AD5075 (1 μM) in HEPES buffer containing 0.05% NP40. A two-fold signal- noise ratio was obtained.
The anti-GST antibody was a goat antibody to GST from Pharmacia (catalogue number 27-4577-01) that was labeled with Eu3+K according to the procedure summarized below. [drawing 2]

PPARγ = target: T3, PPARγ (Homo sapiens, UniProt P37231); test: Titration of known PPARγ agonists in the CBP/PPARγ FRET assay (FIG. 5); settings: derived from FIG. 5; agonist-induced CBP-PPARγ FRET
T3 construct: amino acids 176-478 of PPARγ1; GST (N); made in house; host or cells: E. coli (DH5α)
T3 sequence (P37231 204-505 limits assumed): as the sequence (P37231 204-505) above
T3 sequence (Q92793 1-453 partner limits assumed): as the sequence (Q92793 1-453 partner) above

PPARγ1LBD [2] = target: T2, PPARγ1LBD; test: FRET assay, Eu3+K-labeled hCBP1-113 with biotin-hPPARγ1LBD and SA-XL665 (experiments 1 and 2); set-up: amino acids 176-478 of PPARγ1; GST (N, cleaved yes); made in house; host or cells: E. coli (DH5α); settings: 1 μM AD5075, ratio 665 nm/620 nm
Text: Experiments were first conducted using hCBP1-113 and hPPARγ1LBD. Purified hPPARγ1LBD was biotinylated with Sulfo-NHS-LC-Biotin (PIERCE) to a biotin:hPPARγ1LBD ratio of 3:1 according to the procedure provided by PIERCE. Purified hCBP1-113 was directly labeled with europium cryptate (Eu3+K) by the method illustrated in FIG. 1.
Thus, this experimental format made use of the fluorescent reagent pair europium cryptate (Eu3+K), which acted as donor, and XL665, which acted as acceptor. hCBP1-113 was directly labeled with europium cryptate (Eu3+K); hPPARγ12LBD was indirectly labeled with XL665 by means of a biotin-streptavidin link. The emission maximum of europium cryptate (Eu3+K) overlaps with the absorption maximum of XL665. Therefore, when europium cryptate (Eu3+K) and XL665 are in close proximity, and the sample is illuminated with light at 337 nm (the absorption maximum of europium cryptate (Eu3+K)), FRET can occur between europium cryptate (Eu3+K) and XL665. This FRET manifests itself as increased emission at 665 nm by XL665. […] When agonist is bound to hPPARγ1LBD, a specific interaction occurs between hPPARγ1LBD and hCBP1-113, thus bringing europium cryptate (Eu3+K) and XL665 into close enough proximity for FRET to occur. […]

How did the “Emission ratio with AD5075” value (GST-hPPARγ1LBD) turn out when `Cc1oc(-c2ccccc2)nc1C(O)COc1ccc(CC2SC(=O)NC2=O)cc1` (centres unmarked) [AD5075] was run?
The value was 1883.

What about the “Emission ratio with AD5075” value (PPARγ1LBD [1]) of the same compound?
Its value is 1078.

And the EC50 (PPARγ)?
Its EC50 is 8 nM.

What about the “Emission ratio with AD5075” value (PPARγ1LBD [2]; Experiment 1, PBS buffer) of the same compound?
Its value is 1134.

And the “Emission ratio with AD5075” value (PPARγ1LBD [2]; Experiment 2, HEPES + 0.05% NP40)?
Its value is 967.
